Like-named read-outs stand apart in the source and are kept apart here. Each block holds one compound with its values, some of them ahead of it.
Assays:
[1] = target: T1, "5-HT1 -like" receptor mediating smooth muscle contraction (Oryctolagus cuniculus, UniProt P49144); test: Rabbit Saphenous Vein Assay (contraction of isolated ring segments); format: cell-based, male New Zealand White Rabbits; details: for Emax: read-out: (α)
T1 construct: Right and left lateral saphenous veins were obtained from male New Zealand White Rabbits; from tissue; host or cells: rabbit lateral saphenous vein ring segments
Protocol: A: Rabbit Saphenous Vein Assay
Compounds of formula (I) prepared in Synthetic Examples 1 to 17 were each tested for their activity as agonists […] for the "5-HT1 -like" receptor mediating smooth muscle contraction by the following method.
[…]. Cocaine (30 μM) was present in the Krebs' solution throughout the experiment to prevent the uptake of amines by sympathetic neurones. The Krebs' solution was maintained at 37° C. and continually gassed with 95% oxygen/5% carbon dioxide. Increases in tissue isometric force were measure using Grass FT03C force displacement transducers and recorded on a Gould BD-212 pen recorder.
A force of 1.0 g was applied to each preparation and re-established twice during a subsequent period of 30 minutes.
Agonist activity was assessed by […] additions of the test compound, its concentration being increased in 0.5 log10 unit increments until further additions caused no further change in tissue force. In each experiment, the activity of the test compound was compared to the activity of 5-HT.

[2] = target: T1, "5-HT1 -like" receptor mediating smooth muscle contraction; test: as above; format: cell-based, male New Zealand White Rabbits; details: antagonism, given where compounds were found to be antagonists
[3] = target: T2, "5-HT1 -like" receptor (Bos taurus, UniProt F1MGM3); test: Calf Caudate Assay (competition binding with [3H]-5HT, calf caudate nucleus membranes); details: 3.5 nM [3H]-5HT with 15 μM mesulergine and 15 μM 8-OH-DPAT, text says pIC50 converted by Cheng-Prusoff
T2 construct: Membranes were prepared from homogenates of calf caudate nucleus; from tissue; host or cells: calf caudate nucleus membranes

[4] = agonism, rabbit saphenous vein rings, 37° C., pH 7.4, compared to 5-HT, read-out: pA50 (converted)
[5] = value in parentheses after pA50 in Table 1, rabbit saphenous vein, compared to 5-HT

T1 sequence (P49144 whole entry): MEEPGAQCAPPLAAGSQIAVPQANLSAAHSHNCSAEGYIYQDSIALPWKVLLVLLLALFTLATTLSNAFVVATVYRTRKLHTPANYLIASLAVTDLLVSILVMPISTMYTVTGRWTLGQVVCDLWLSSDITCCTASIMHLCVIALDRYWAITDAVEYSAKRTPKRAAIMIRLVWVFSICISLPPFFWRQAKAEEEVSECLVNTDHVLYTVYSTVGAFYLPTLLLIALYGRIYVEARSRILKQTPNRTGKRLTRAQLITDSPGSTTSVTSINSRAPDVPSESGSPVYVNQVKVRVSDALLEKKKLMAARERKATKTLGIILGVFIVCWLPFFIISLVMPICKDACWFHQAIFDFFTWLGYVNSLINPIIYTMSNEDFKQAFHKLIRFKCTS
T2 sequence (F1MGM3 1-403): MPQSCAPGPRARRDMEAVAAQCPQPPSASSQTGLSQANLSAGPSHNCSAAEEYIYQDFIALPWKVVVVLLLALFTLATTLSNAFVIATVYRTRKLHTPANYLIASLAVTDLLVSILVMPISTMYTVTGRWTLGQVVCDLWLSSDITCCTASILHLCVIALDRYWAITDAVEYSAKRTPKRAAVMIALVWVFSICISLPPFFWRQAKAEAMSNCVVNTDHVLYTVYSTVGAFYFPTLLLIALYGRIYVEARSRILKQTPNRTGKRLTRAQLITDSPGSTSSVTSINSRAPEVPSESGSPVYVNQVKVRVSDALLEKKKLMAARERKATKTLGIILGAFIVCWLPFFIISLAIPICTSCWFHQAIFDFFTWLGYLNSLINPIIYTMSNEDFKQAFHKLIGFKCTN

- EC50 [1, 4]: 3.63 µM
- Emax [1, 5]: 16%
Compound: CN(C)[C@H]1C[C@H](c2c[nH]c3ccc(CC4CNC(=O)O4)cc32)C1 (single isomer, unassigned; (+)) [Example 21, (+)-5-[3-trans-3-dimethylaminocyclobutyl-1H-indol-5-lmethyl]oxazolidin-2-one]

- Kb [2]: 0.17 µM
Compound: CN(C)[C@H]1C[C@H](c2c[nH]c3ccc(CCN4C(=O)c5ccccc5C4=O)cc32)C1 [Example 7]

- EC50 [1, 4]: 7.08 µM
- Emax [1, 5]: 29%
Compound: CN(C)[C@H]1C[C@@H](c2c[nH]c3ccc(C[C@H]4COC(=O)N4)cc32)C1 [Example 15]

- Kb [2]: 0.589 µM
Compound: CN(C)[C@H]1C[C@H](c2c[nH]c3ccc(CN4C(=O)NC(C)(C)C4=O)cc32)C1 [Example 12, 5,5-dimethyl-3-[3-(trans-3-dimethylaminocyclobutyl)-1H-indol-5-ylmethyl]imidazolidin-2,4-dione]

- Kb [2]: 759 µM
Compound: Cc1noc(Cc2ccc3[nH]cc([C@H]4C[C@H](N(C)C)C4)c3c2)n1 [Example 27, 3-methyl-5-[3-(trans-3-dimethylaminocyclobutyl)-1H-indol-5-ylmethyl] 1,2,4-oxadiazole]

- pKb [2]: 7.18
Compound: CN(C)[C@H]1C[C@H](c2c[nH]c3ccc(CCN4C(=O)CC5(CCCCC5)CC4=O)cc32)C1 [Example 8, 3-{2-[3-(trans-3-dimethylaminocyclobutyl)-1H-indol-5-yl]ethyl}-3-azaspiro[5,5]undecane-2,4-dione]

- Kb [2]: 6.61 µM
Compound: Cc1nc(Cc2ccc3[nH]cc([C@H]4C[C@H](N(C)C)C4)c3c2)n[nH]1 [Example 28, 3-methyl-5-[3-(trans-3-dimethylaminocyclobutyl)-1H-indol-5-ylmethl]1,2,4-triazole]

- Kb [2]: 9.33 µM
Compound: CN(C)[C@H]1C[C@H](c2c[nH]c3ccc(CN4C(=O)CNC4=O)cc32)C1 [Example 9, 3-[3-(trans-3-dimethylaminocyclobutyl)-1H-indol-5-ylmethyl]imidazolidin-2,4-dione]

- Kb [2]: 3.89 µM
Compound: CN(C)[C@H]1C[C@H](c2c[nH]c3ccc(CC(=O)NCc4ccccc4)cc32)C1 [Example 26, N-benzyl-3-[trans-3-dimethylaminocyclobutyl]-1H-indol-5-yl acetamide]

- Kb [2]: 11.2 µM
Compound: CN(C)[C@H]1C[C@H](c2c[nH]c3ccc(C[C@@H]4COC(=O)N4)cc32)C1 [Example 11, 4-[3-(trans-3-dimethylaminocyclobutyl)-1H-indol-5-ylmethyl]-(4R)oxazolidin-2-one]

- EC50 [1, 4]: 6.17 µM
- Emax [1, 5]: 48%
Compound: CN(C)[C@H]1C[C@H](c2c[nH]c3ccc(CCN4C(=O)c5ccccc5C4=O)cc32)C1 [Example 24, 2-{2-[3-(trans-3-dimethylaminocyclobutyl)-1H-indol-5-yl]ethyl} phthalamide]

- EC50 [1, 4]: 14.1 µM
- Emax [1, 5]: 38%
Compound: CN1C(=O)OC[C@H]1Cc1ccc2[nH]cc([C@H]3C[C@H](N(C)C)C3)c2c1 [Example 13, 4-[3-(trans-3-dimethylaminocyclobutyl)-1H-indol-5-ylmethyl]-3-methyl(4R)oxazolidin-2-one]

- Kb [2]: 1.26 µM
Compound: CN(C)[C@H]1C[C@H](c2c[nH]c3ccc(C(=O)NCc4ccccc4)cc32)C1 [Example 23]

Further lines, the compound ahead of its results:

Compound: CN(C)[C@H]1C[C@H](c2c[nH]c3ccc(CC(N)=O)cc32)C1 [Example 25, 3-[trans-3-dimethylaminocyclobutyl]-1H-indol-5-yl acetamide]
- Kb [1]: 16.6 µM

Compound: CN(C)[C@H]1C[C@H](c2c[nH]c3ccc(C(N)=O)cc32)C1 [Example 14, 5-carboxamido-3-(trans-3-dimethylaminocyclobutyl)-1H-indole]
- EC50 [1]: 0.562 µM
- Emax ([1]; rabbit): 52%

Compound: N[C@H]1C[C@H](c2c[nH]c3ccc(C[C@H]4COC(=O)N4)cc32)C1 [Example 1, 4-[3-(trans-3-aminocyclobutyl)-5-indolylmethyl)-(4S)-oxazolidin-2-one]
- Activity P[A50 ] [3]: 7.8

Compound: CN(C)[C@H]1C[C@H](c2c[nH]c3ccc(Oc4ccccc4)cc32)C1 [Example 17, 5-phenoxy-3-(trans-3-dimethylaminocyclobutyl)-1H-indole]
- Kb [1]: 0.24 µM

Compound: CN(C)[C@H]1C[C@H](c2c[nH]c3ccc(C[C@H]4COC(=O)N4)cc32)C1 [Example 4, 4-[3-(trans-3-dimethylaminocyclobutyl)-1H-indol-5-ylmethyl]-(4S)oxazolidin-2-one]
- EC50 [1, 4]: 1.91 µM
- Emax [1, 5]: 9%

Compound: CNS(=O)(=O)Cc1ccc2[nH]cc([C@H]3C[C@H](N(C)C)C3)c2c1 [Example 10, N-methyl-[3-(trans-3-dimethylaminocyclobutyl)-1H-indol-5-yl]methanesulphonamide]
- Kb [1]: 5.62 µM

Compound: CN(C)[C@H]1C[C@H](c2c[nH]c3ccc(CCN4C(=O)CNC4=O)cc32)C1 [Example 3]
- Kb [2]: 1.91 µM

Compound: N[C@H]1C[C@H](c2c[nH]c3ccc(Oc4ccccc4)cc32)C1 [Example 16, 5-phenoxy-3-(trans-3-aminocyclobutyl)-1H-indole]
- Kb [1]: > 0.316 µM

Compound: CN[C@H]1C[C@H](c2c[nH]c3ccc(C[C@H]4COC(=O)N4)cc32)C1 [Example 22, 4-[3-(trans-3-methylaminocyclobutyl)-1H-indol-5-ylmethyl]-(4S) oxazolidin-2-one]
- EC50 [1, 4]: 0.708 µM
- Emax [1, 5]: 72%

Compound: CC1(C)NC(=O)N(CCc2ccc3[nH]cc([C@H]4C[C@H](N)C4)c3c2)C1=O [Example 6, 3-{2-[3-(trans-3-aminocyclobutyl)-1H-indol-5-yl]ethyl}-5,5-dimethylimidazolidin-2,4-dione]
- Kb [2]: 2.69 µM

Compound: N[C@H]1C[C@H](c2c[nH]c3ccc(C[C@H]4COC(=O)N4)cc32)C1 [Example 1 (trans), 4-[3-(trans-3-aminocyclobutyl)-5-indolylmethyl)-(4S)-oxazolidin-2-one acetate]
- EC50 [1]: 0.38 µM
- Emax ([1]; rabbit): 78%

Compound: N[C@H]1C[C@@H](c2c[nH]c3ccc(C[C@H]4COC(=O)N4)cc32)C1 [Example 1 (cis), 4-[3-(cis-3-aminocyclobutyl)-5-indolymethyl]-(4S)-oxazolidin-2-one acetate]
- EC50 [1, 4]: 1.58 µM
- Emax ([1]; rabbit): 76%

Compound: Cc1noc(-c2ccc3[nH]cc([C@H]4C[C@H](N(C)C)C4)c3c2)n1 [Example 18, 3-methyl-5-[3-(trans-3-dimethylaminocyclobutyl)indol-5-yl]-1,2,4-oxadiazole]
- Kb [1]: 0.955 µM

Compound: CN(C)[C@H]1C[C@H](c2c[nH]c3ccc(CCN4C(=O)NC(C)(C)C4=O)cc32)C1 [Example 5]
- Kb [2]: 0.891 µM

Compound: 4-[3-(trans-3dimethylaminocyclobut-1-ylmethyl)-1H-indol-5-ylmethyl]-(4S)oxazolidin-2-one [Example 19]
- pKb [2]: 5.73

— patent publication US5922748A, “Indole derivatives as 5-HT agonists” (Glaxo Wellcome Inc., priority 1994, dated 1999)
